Test results: PubChem BioAssay AID2060895 (Molecular Pharmacology Branch, DTP, NCI, 2025)
“And” between values parts separate entries of the source, which are not always exact repeats. Identical values can stand only once.

System: PDC 899932-113-R3-J6 complex spheroid viability
Assay: Anticancer human tumor 899932-113-R3-J6-PDC patient-derived melanoma cell line growth inhibition [RAS]
Details: for viability, T/C: stronger effect = lower value
From the text: RAS pathway inhibitors in Combinations in Complex Spheroids
A high-throughput screen of multi-cell type tumor spheroids was designed to identify active combinations of RAS pathway inhibitors and targeted small molecules. Complex spheroids include a stromal component modeled by human endothelial cells (HUVEC) and fibroblasts modeled by human mesenchymal stem cells (MSCs). The concentration ranges selected for each drug and investigational agent were based upon clinically achievable concentrations if the clinical Cmax of the agent was known.
Compounds. The drugs and investigational agents: abemaciclib (NSC768073), cobimetinib (NSC768068), divarasib (GDC6063, NSC841802), docetaxel (NSC628503), GDC-1971 (RLY-1971, NSC841576), gemcitabine (NSC613327), inavolisib (NSC800729), ipatasertib (NSC767898), KB-0742 (NSC834161), MRTX-1133 (NSC836407), osimertinib (NSC779217), RMC-4630 (NSC839698), RMC-6236 (NSC851965), RMC-6291 (NSC852671), Ro-3306 (NSC812927), sapanisertib (NSC764658), SN-38 (NSC673596), staurosporine (NSC755774), SY5609 (NSC837396), and tovorafenib (DAY101, NSC766906), were obtained from the National Cancer Institute (NCI) Developmental Therapeutics Program Chemical Repository. The FDA-approved anticancer drug set is available from the NCI Developmental Therapeutics Program. […] The stock solutions were prepared in dimethyl sulfoxide (DMSO, Sigma-Aldrich, St. Louis, MO, cat. D2650) at 800-fold the tested concentration and stored at -70 degrees C prior to their use. All drugs and investigational agents were tested over a range starting from a high concentration at or near the clinical Cmax and decreasing in half-log increments. If the clinical Cmax for an agent had not been determined, the highest concentration tested was 10 microM.
Cell Culture. All cells were maintained in an incubator at 37 degrees C and 5% CO2 with 95% humidity. The PDC lines were cultured according to standard operating procedures established by the NCI PDMR. All PDCs were thawed and cultured in Matrigel-coated flasks prepared with a working solution of 1X Ham's F-12 nutrient mix, without supplementation (Invitrogen, Waltham, MA, cat. 11765054), 100 U/mL penicillin-streptomycin (Invitrogen, cat. 15140122), and 2.5% Matrigel (Corning Inc., Corning, NY, cat. 354248) for the first three passages. The 362531-283-R-J2-PDC and 782815-120-R-J1-PDC lines were cultured in 6C/Colon 1B media, which includes advanced DMEM/F-12 (Thermo Fisher Scientific, cat. 12634028), 10 mM HEPES (Thermo Fisher Scientific, cat. 15630080), 1X GlutaMAX supplement (Thermo Fisher Scientific, cat. 35050061), 0.1 mg/mL primocin (InvivoGen, San Diego, CA, cat. ant-pm-2), 10% defined fetal bovine serum, heat inactivated (HyClone Laboratories Inc., Logan, UT, cat. SH30070.03HI), 50% L-WRN conditioned media (ATCC, cat. CRL-3276), 1.25 mM N-Acetyl-L-cysteine (Sigma-Aldrich, cat. A9165), 10 mM nicotinamide (Sigma-Aldrich, cat. N0636), 1X B-27 supplement (Thermo Fisher Scientific, cat. 17504044), 1X N-2 supplement (Thermo Fisher Scientific, cat. 17502048), 50 ng/mL human EGF (Thermo Fisher Scientific, cat. PHG0311), and 10 microM Y-27632 dihydrochloride (Tocris Bioscience, cat. 1254). The K12877-001-R-J1-PDC line was cultured in 6I media, which includes all 6C/Colon 1B media plus 10 ng/mL human FGF-10 (PeproTech, cat. 100-26), 1 ng/mL human FGF-2 (PeproTech, cat. 100-18B), 1 µM prostaglandin E2 (Tocris Bioscience, cat. 2296), […] hydrocortisone (Sigma-Aldrich, cat. H4001), and […] bovine insulin (Sigma-Aldrich, cat. I6634). The K86415-001-R-J1-PDC line was cultured in 6D media, which includes all 6C/Colon 1B media components minus the L-WRN conditioned media. The 485176-168-R4-J1-PDC was cultured in PANC media, which includes all 6C/Colon 1B media plus 100 ng/mL human FGF-10 (PeproTech, cat. 100-26), 500 nM SB-431542 (Selleckchem, cat. S1067), and 10 nM gastrin (Tocris Bioscience, cat. 3006). […]
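Wherever viability, T/C is given: spheroids exposed to agents for seven days before readout; 100% = DMSO vehicle control wells.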

SMILES: C=CC(=O)Nc1cc(Nc2nccc(-c3cn(C)c4ccccc34)n2)c(OC)cc1N(C)CCN(C)C + C=CC(=O)N1CCN(c2nc(OCC3CCCN3C)nc3c(F)c(-c4nc(N)cc(C)c4C(F)(F)F)c(Cl)cc23)C(C)C1
- IC50 (curve of first compound, second compound 0.00316 µM): > 1000 nM
- IC50 (curve of first compound, second compound 0.01 µM): > 1000 nM
- IC50 (curve of first compound, second compound 0.0316 µM): > 1000 nM
- IC50 (curve of first compound, second compound 0.1 µM): > 1000 nM
- IC50 (curve of first compound, second compound 0.316 µM): > 1000 nM
- IC50 (curve of first compound, second compound 1 µM): > 1000 nM
- viability, T/C (second compound 0.00316 µM, first compound 0.00316 µM): 103%
- viability, T/C (second compound 0.00316 µM, first compound 0.01 µM): 93.5%
- viability, T/C (second compound 0.00316 µM, first compound 0.0316 µM): 101%
- viability, T/C (second compound 0.00316 µM, first compound 0.1 µM): 99.1%
- viability, T/C (second compound 0.00316 µM, first compound 0.316 µM): 101%
- viability, T/C (second compound 0.00316 µM, first compound 1 µM): 82.8%
- viability, T/C (second compound 0.01 µM, first compound 0.00316 µM): 98.9%
- viability, T/C (second compound 0.01 µM, first compound 0.01 µM): 99.4%
- viability, T/C (second compound 0.01 µM, first compound 0.0316 µM): 98.7%
- viability, T/C (second compound 0.01 µM, first compound 0.1 µM): 101%
- viability, T/C (second compound 0.01 µM, first compound 0.316 µM): 101%
- viability, T/C (second compound 0.01 µM, first compound 1 µM): 92.2%
- viability, T/C (second compound 0.0316 µM, first compound 0.00316 µM): 106%
- viability, T/C (second compound 0.0316 µM, first compound 0.01 µM): 101%
- viability, T/C (second compound 0.0316 µM, first compound 0.0316 µM): 92.9%
- viability, T/C (second compound 0.0316 µM, first compound 0.1 µM): 107%
- viability, T/C (second compound 0.0316 µM, first compound 0.316 µM): 107%
- viability, T/C (second compound 0.0316 µM, first compound 1 µM): 82%
- viability, T/C (second compound 0.1 µM, first compound 0.00316 µM): 110%
- viability, T/C (second compound 0.1 µM, first compound 0.01 µM): 95%
- viability, T/C (second compound 0.1 µM, first compound 0.0316 µM): 112%
- viability, T/C (second compound 0.1 µM, first compound 0.1 µM): 97.7%
- viability, T/C (second compound 0.1 µM, first compound 0.316 µM): 96.4%
- viability, T/C (second compound 0.1 µM, first compound 1 µM): 99.6%
- viability, T/C (second compound 0.316 µM, first compound 0.00316 µM): 112%
- viability, T/C (second compound 0.316 µM, first compound 0.01 µM): 103%
- viability, T/C (second compound 0.316 µM, first compound 0.0316 µM): 101%
- viability, T/C (second compound 0.316 µM, first compound 0.1 µM): 107%
- viability, T/C (second compound 0.316 µM, first compound 0.316 µM): 102%
- viability, T/C (second compound 0.316 µM, first compound 1 µM): 89.1%
- viability, T/C (second compound 1 µM, first compound 0.00316 µM): 98.4%
- viability, T/C (second compound 1 µM, first compound 0.01 µM): 97.2%
- viability, T/C (second compound 1 µM, first compound 0.0316 µM): 91.8%
- viability, T/C (second compound 1 µM, first compound 0.1 µM): 94.5%
- viability, T/C (second compound 1 µM, first compound 0.316 µM): 105%
- viability, T/C (second compound 1 µM, first compound 1 µM): 78.8%

SMILES: CC(Nc1ccc2c(c1)OCCn1cc(N3C(=O)OCC3C(F)F)nc1-2)C(N)=O (centres undefined)
- viability, T/C (compound 0.0316 µM): 104% [middle of 4 runs]
- viability, T/C (compound 0.1 µM): 71.2% [middle of 4 runs]
- viability, T/C (compound 0.316 µM): 63.9% [middle of 4 runs]
- viability, T/C (compound 1 µM): 58.4% [middle of 4 runs]
- viability, T/C (compound 3.16 µM): 46.1% (2×) and 45.7% and 46%
- viability, T/C (compound 10 µM): 35.1% [middle of 4 runs]
- IC50 (curve of compound): 1.74 µM [middle of 4 runs]
